Test results published in ChEMBL document CHEMBL4513155, “CO-ADD screening of University of Sydney (Australia) compounds” (2021).
In brackets after ≈: the same amount, converted by molar mass.

Tests used:
HEK293 = experiment: cells; type: functional; settings: Homo sapiens, ATCC CRL1573, HEK293; ASSAY_TEST Inhibition of Cell Viability; detection method Resazurin; Fluorescence (ex560/em590); MEDIA DMEM with 10% FBS; plate type 384well; TC; CORNING #3712; time 18 hr
Staphylococcus aureus = experiment: microbe, parasite or virus in culture; settings: ATCC 43300, 18 h, ASSAY_TEST Inhibition of Bacterial Growth, detection method Absorption (OD600), MEDIA CAMHB, plate type 384well, NBS, CORNING #3640
Description: Antibacterial activity against Staphylococcus aureus MRSA ATCC 43300 (CO-ADD:GP_020); MIC in CAMBH media, using NBS plates, by OD(600)

Escherichia coli = experiment: microbe, parasite or virus in culture; settings: ATCC 25922, 18 h, ASSAY_TEST Inhibition of Bacterial Growth, detection method Absorption (OD600), MEDIA CAMHB, plate type 384well, NBS, CORNING #3640
Description: Antibacterial activity against Escherichia coli ATCC 25922 (CO-ADD:GN_001); MIC in CAMBH media using NBS plates, by OD(600)

Klebsiella pneumoniae = experiment: microbe, parasite or virus in culture; settings: ATCC 700603, 18 h, ASSAY_TEST Inhibition of Bacterial Growth, detection method Absorption (OD600), MEDIA CAMHB, plate type 384well, NBS, CORNING #3640
Description: Antibacterial activity against Klebsiella pneumoniae MDR ATCC 70063 (CO-ADD:GN_003); MIC in CAMBH media using NBS plates, by OD(600)

Pseudomonas aeruginosa = experiment: microbe, parasite or virus in culture; settings: ATCC 27853, 18 h, ASSAY_TEST Inhibition of Bacterial Growth, detection method Absorption (OD600), MEDIA CAMHB, plate type 384well, NBS, CORNING #3640
Description: Antibacterial activity against Pseudomonas aeruginosa ATCC 27853 (CO-ADD:GN_042); MIC in CAMBH media using NBS plates, by OD(600)

Acinetobacter baumannii = experiment: microbe, parasite or virus in culture; settings: ATCC 19606, 18 h, ASSAY_TEST Inhibition of Bacterial Growth, detection method Absorption (OD600), MEDIA CAMHB, plate type 384well, NBS, CORNING #3640
Description: Antibacterial activity against Acinetobacter baumannii ATCC 19606 (CO-ADD:GN_034); MIC in CAMBH media using NBS plates, by OD600

Candida albicans = experiment: microbe, parasite or virus in culture; settings: ATCC 90028, ASSAY_TEST Inhibition of Fungal Growth, detection method Absorption (OD530), plate type 384well, NBS, CORNING #3640
Description: Antifungal activity against Candida albicans ATCC 90028 (CO-ADD:FG_001); MIC in YNB media using NBS plates, by OD630

Description for Cryptococcus neoformans: Antifungal activity against Cryptococcus neoformans H99 ATCC 208821 (CO-ADD:FG_002); MIC in YNB media using NBS plates, by Resazurin OD(600-570)

SMILES | CC50 (HEK293) | MIC (Cryptococcus neoformans) | MIC (Staphylococcus aureus) | MIC (Escherichia coli) | MIC (Klebsiella pneumoniae) | MIC (Pseudomonas aeruginosa) | MIC (Acinetobacter baumannii) | MIC (Candida albicans)
CCN1C(=O)c2cccc3c(-c4c[n+](CCN5CCCNCCN(CC[n+]6cc(COc7ccc8c(c7)CC[C@@H]7[C@@H]8CC[C@]8(C)C(=O)CC[C@@H]78)[nH]n6)CCCNCC5)n[nH]4)ccc(c23)C1=O.[O-][Cl+3]([O-])([O-])O.[O-][Cl+3]([O-])([O-])O.[Zn+2] | > 32 mg/L | 32 mg/L | 16 mg/L | > 32 mg/L | > 32 mg/L | > 32 mg/L | > 32 mg/L | > 32 mg/L
[O-][Cl+3]([O-])([O-])O.[O-][Cl+3]([O-])([O-])O.[Zn].c1ccc2c(-n3cc(CN4CCCNCCN(Cc5cn(-c6cccc7ccccc67)nn5)CCCNCC4)nn3)cccc2c1 | 4.89 mg/L | 4 mg/L | 4 mg/L | > 32 mg/L | > 32 mg/L | > 32 mg/L | > 32 mg/L | > 32 mg/L
Clc1ccc(-c2nnc3cncc(OCCc4ccccc4)n23)cc1 | 21.7 mg/L (≈ 61.9 µM) | > 32 mg/L | > 32 mg/L | > 32 mg/L | > 32 mg/L | > 32 mg/L | > 32 mg/L | 0.5 mg/L (≈ 1.43 µM)
